From US5455240A, “Modulators of pneumococcal adhesion to cellular targets involving the platelet activating factor receptor, and uses thereof” (The Rockefeller University, priority 1994, dated 1995)

Tests used:
[1] = tested on: type II lung cells and vascular endothelial cells; assay: Pneumococcal adherence to EC and LC, results stated for both cell types together; assay type: cell-based, human; details: for inhibition of adherence to resting cells by single sugars: resting EC and LC; for IC50: Homo sapiens, Endothelial cell, 0.5 h, activated cells (IL-1α-stimulated LC, TNFα-stimulated EC), R6 10^7 cfu/ml, 30 min, 37° C., read-out: ED50 of inhibition of pneumococcal adherence
Procedure: (§1) FIG. 2. Effect of PAF receptor antagonists on pn[…] to IL-1α-stimulated cultured human type II lung cells (A) and TNFα-stimulated vascular endothelial cells (B). Cytokine stimulated monolayers were incubated (10 min, 37° C.) with either albumin buffer (--) or increasing concentrations of the PAF receptor antagonists L659,989 ( ) and WEB 2086 ( ) and R6 pneumococci (10^7 cfu/ml) allowed to adhere to the monolayers for 30 min at 37° C. Control adherence in the absence of cytokine stimulation is indicated by a horizontal dotted line (------). Adherent bacteria were determined as the number of attached bacteria per 100 lung or endothelial cells. Results are the means ±SD for duplicate wells in at least six independent experiments. *p<0.05 compared with cytokine-stimulation in the absence of antagonists.
FIG. 4. Effect of simple sugars on adherence of R6 to resting and cytokine-stimulated human cultured type II pneumocytes (A) and vascular endothelial cells (B). R6 (10^7 cfu/ml) was exposed to various simple sugars (15 min, room temperature) and then co-incubated with either resting (.quadrature.) or cytokine-stimulated ( ) monolayers for 30 min. Pn[…] to a designated sugar was defined as bacterial adherence to 100 host cells in the absence of sugar-bacterial adherence to 100 host cells in the presence of sugar. Results are the means ±SD for duplicate wells in at least six independent experiments. Glc=D-glucose, Gal=D-galactose, Fuc=L-fucose, GalNAc=N-acetyl-D-galactosamine, GlcNAc=N-acetyl-D-glucosamine, Man=D-mannose, NANA=sialic acid, Lac=lactose and 2-ADGG=2-acetamido-2-deoxy-3-O-B-D-galactopyranosyl-D-galactopyranose.
(§2) The contribution of carbohydrate recognition to pn[…] to cytokine-stimulated EC and LC was tested using competition assays performed in the presence of monosaccharides (1-50 mM) or glycoconjugates (0.003-2 mM) the role of carbohydrate recognition in pn[…] is disclosed more fully in copending application Ser. No. 08/254,577, Attorney Docket No. 600-1-084, filed Jun. 6, 1994 by Tuomanen and Cundell, entitled "MODULATORS OF PN[…] TO PULMONARY AND VASCULAR CELLS AND DIAGNOSTIC AND THERAPEUTIC APPLICATIONS"; hereinafter Tuomanen and Cundell. Bacteria were pre-incubated for 15 min at room temperature with final concentrations of the sugars as stated, centrifuged (3,000 rpm, 3 min) to remove unbound sugar, resuspended to 1×10^7 cfu/ml in albumin buffer and added to the adherence assay. […] Adherence of bacteria lacking choline to activated cells in the presence and absence of GlcNAc was 121 ±11 and 119 ±5/100 EC and 137 ±7 and 135 ±13/100 LC, respectively.

PAF receptor [2] = target: T1, PAF receptor (Homo sapiens, UniProt P25105); assay: Pneumococcal adherence to U937 and COS-7 cells transfected with PAF receptor; assay type: cell-based; design: pneumococcal adherence; details: for adherence of R6 to U937 cells in presence of glycoconjugate: PAF receptor-transfected U937, input 10^7 cfu/ml, 296 ±30 without glycoconjugates; for pneumococcal adherence to PAF receptor-transfected cells: transfected COS-7 and U937 cells, antagonists 1 μM (FIG. 3)
T1 sequence (P25105 whole entry): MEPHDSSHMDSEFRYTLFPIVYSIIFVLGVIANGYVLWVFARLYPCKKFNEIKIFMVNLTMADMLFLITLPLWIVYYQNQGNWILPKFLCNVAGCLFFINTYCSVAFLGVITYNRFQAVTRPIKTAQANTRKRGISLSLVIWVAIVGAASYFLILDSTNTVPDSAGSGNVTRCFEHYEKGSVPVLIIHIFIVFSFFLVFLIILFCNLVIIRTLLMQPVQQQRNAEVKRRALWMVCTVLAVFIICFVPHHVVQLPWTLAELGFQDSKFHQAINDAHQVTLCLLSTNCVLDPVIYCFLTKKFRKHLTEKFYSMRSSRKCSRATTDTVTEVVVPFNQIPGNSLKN
Procedure: FIG. 3. Effect on pneumococcal adherence to PAF receptors of receptor deglycosylation, the antagonists WEB 2086 and L659,989 (1 μM) and removal of phosphorylcholine from the pneumococcal cell wall (Tuomanen et al., 1985, J. Infect. Dis. 151: 859).
Recently, the PAF receptor was cloned from human leukocytes and successfully transfected into kidney epithelial cells (Kunz et al, supra). To determine if pneumococci could directly adhere to PAF receptors, human U937 cells (ATCC CRL1593; embryonic kidney epithelial cells stably transfected with the SV40 large T-antigen) and COS-7 cells (ATCC CRL 1651; monkey kidney) were transfected with the human PAF receptor cDNA (Gerard and Gerard, 1994, J. Immunol 152: 793) or the cDNA containing a Flag construct (Kunz et al., supra) by electroporation (Kunz et al., supra) or the addition of cationic liposomes (Gerard and Gerard, supra). […] Controls cells were transfected with vector alone. Monolayers of transfected and control cells were prepared in 60-well Terasaki dishes. Monolayers of COS-7 and U937 cells are prepared in 48-well culture dishes using the methods previously described for EC and LC (Geelen et al., 1993, Infect. Immun. 61: 1538).

[3] = tested on: human vein endothelial cells (EC); assay: Pneumococcal adherence to human vein endothelial cell monolayers, resting or TNFα-stimulated; assay type: cell-based; details: for Number of pneumococci adherent to designated receptor on host cell: 2 mM sugar, adherence per 100 host cells without sugar minus with sugar; for pneumococcal adherence to resting EC in presence of antagonist: 1 μM antagonist, without antagonist 240 ±15
Procedure: (§3) FIG. 1. Adherence of pneumococci to cytokine-stimulated human cultured type II pneumocytes (A) and vascular endothelial cells (B). Monolayers in 60 well Terasaki dishes were stimulated with IL-1α (type II lung cells; 5 ng/ml, 4 h at 37° C.; Rozdzinski et al., 1993, J. Exp. Med. 178: 917) and TNFα (vascular endothelial cells; 10 ng/ml, 3 h at 37° C.; Elias et al., 1990, Am. J. Respir. Cell. Mol. Biol. 3: 13). Pneumococci R6 and AII were cultured for 18 h on trypticase soy agar containing 3% sheep blood, labelled with fluorescein isothiocyanate and adjusted to 10^5 -10^7 cfu/ml (Geelen et al., 1993, Infect. Immun. 61: 1538), and co-incubated with the monolayers. Control adherence in the absence of cytokine is indicated by a hatched line (-----). Bacteria adherent to cytokine-stimulated (.cndot.) and resting (.smallcircle.) monolayers were determined as the number of attached bacteria per 100 lung or endothelial cells. Results are the means ±SD for duplicate wells in at least six independent experiments.
as §1
(§4) The adherence of S. pneumoniae encapsulated strain AII (serotype 2) and the isogeneic unencapsulated strain R6 to human vein endothelial cells (EC) and type II lung epithelial cells (LC) was quantitated before and after stimulation of the eukaryotic cells with IL-1 or TNF. Adherence to EC was increased […] by TNFα stimulation (FIG. 1). […] (increase from 240 ±10 to 363 ±13 bacteria/100 EC; increase from 270 ±15 to 355 ±18 bacteria/100 LC). Adherence was not affected by the presence of a type II capsule. At an input concentration of 10^7 cfu/ml, adherence of AII and R6 to 100 TNFα-stimulated EC was 405 ±14 and 400 ±10, respectively.
as §2

[4] = tested on: type II lung epithelial cells (LC); assay: Pneumococcal adherence to human type II lung epithelial cell monolayers, resting or IL-1α-stimulated; assay type: cell-based; details: for Number of pneumococci adherent to designated receptor on host cell: 2 mM sugar, adherence per 100 host cells without sugar minus with sugar; for pneumococcal adherence to resting LC in presence of antagonist: 1 μM antagonist, without antagonist 270 ±10
Procedure: as §3, §1, §4, §2

PAF receptor [5] = target: T1, PAF receptor; design: IP3 (3H-inositol) response; details: Hwang and Lam, 1991; cited from earlier work
PAF receptor [6] = target: T1, PAF receptor; assay: Activation of PAF receptor-transfected COS-7 cells, 3H incorporation in inositoltriphosphate (IP3); assay type: cell-based; design: IP3 (3H-inositol) response
Procedure: FIG. 6. Pneumococci activate the PAF receptor. COS cells in a monolayer were treated with control, platelet activating factor ([…]), pneumococci (10^8 bacteria/ml), ethanolamine-cultured pneumococci (10^8 bacteria/ml), PAF+L659,989, and pneumococci+L659,989. Activation was measured by detecting the level of incorporation of ^3 H in inositoltriphosphate, which is reported as the percentage above background .
Activation of COS-7 cells transfected with the PAF receptor was assayed. The cells were exposed to medium (control), platelet activating factor ([…]), pneumococci (10^8 bacteria/ml), and ethanolamine cultured pneumococci (10^8 bacteria/ml). Inhibition of activation by PAF and pneumococci with the PAF receptor antagonist L659,989 (2 μg/ml) was also measured. Cellular activation was measured by detecting incorporation of ^3 H in inositoltriphosphate (IP3).

[7] = monosaccharides 1-50 mM (FIG. 4)

O=C[C@@H](O)[C@@H](O)[C@H](O)[C@H](O)CO [D-mannose]
inhibition of adherence to resting cells by single sugars [1, 7]: effective in inhibiting adherence to resting cells

globoside
adherence of R6 to U937 cells in presence of glycoconjugate (PAF receptor [2]): 318 ±30 | Number of pneumococci adherent to designated receptor on host cell ([3]; EC + TNFα, control 415 ± 25): 200 ± 9 | Number of pneumococci adherent to designated receptor on host cell ([3]; resting EC, control 240 ± 10): 110 ± 8 | Number of pneumococci adherent to designated receptor on host cell ([4]; LC + IL-1α, control 355 ± 18): 200 ± 11 | Number of pneumococci adherent to designated receptor on host cell ([4]; resting LC, control 270 ± 15): 140 ± 10

asialo-GM2
adherence of R6 to U937 cells in presence of glycoconjugate (PAF receptor [2]): 327 ±39 | Number of pneumococci adherent to designated receptor on host cell ([3]; EC + TNFα, control 415 ± 25): 180 ± 13 | Number of pneumococci adherent to designated receptor on host cell ([3]; resting EC, control 240 ± 10): 140 ± 12 | Number of pneumococci adherent to designated receptor on host cell ([4]; LC + IL-1α, control 355 ± 18): 205 ± 9 | Number of pneumococci adherent to designated receptor on host cell ([4]; resting LC, control 270 ± 15): 140 ± 10

CCCOc1c(OC)cc([C@@H]2CC[C@@H](c3cc(OC)c(OC)c(OC)c3)O2)cc1S(C)(=O)=O (relative stereo) [L659,989]
pneumococcal adherence to PAF receptor-transfected cells (PAF receptor [2]): inhibit pneumococcal adherence | oral activity (PAF receptor [5]): orally active | pneumococcal adherence to resting EC in presence of antagonist ([3]; resting EC): 237 ±9 bacteria/EC | inhibition of PAF-mediated activation (PAF receptor [6]; L659,989 2 μg/ml, PAF 100 mM): almost completely inhibited | inhibition of pneumococcal-mediated activation (PAF receptor [6]; L659,989 2 μg/ml, pneumococci 10^8 bacteria/ml): almost completely inhibited | IC50 [1]: 50 nM | pneumococcal adherence to resting LC in presence of antagonist ([4]; resting LC): 272 ±8 bacteria

CC(=O)N[C@H]1C(O)O[C@H](CO)[C@H](O)[C@@H]1O (stereo partly drawn) [GalNAc, N-acetyl-D-galactosamine]
inhibition of adherence to resting cells by single sugars [1, 7]: effective in inhibiting adherence to resting cells

CCCCCCCCCCCCCCCCOCC(COP(=O)([O-])OCC[N+](C)(C)C)OC(C)=O (centres unmarked) [PAF, platelet activating factor]
pneumococcal adherence to PAF receptor-transfected cells (PAF receptor [2]): inhibit pneumococcal adherence | 3H incorporation in IP3 (receptor activation) (PAF receptor [6]; PAF 100 mM, transfected COS-7 cells (FIG. 6)): significant ^3 H incorporation in IP3

Cc1nnc2n1-c1sc(CCC(=O)N3CCOCC3)cc1C(c1ccccc1Cl)=NC2 [WEB 2086]
pneumococcal adherence to PAF receptor-transfected cells (PAF receptor [2]): inhibit pneumococcal adherence | pneumococcal adherence to resting EC in presence of antagonist ([3]; resting EC): 224 ±12 bacteria/EC | IC50 [1]: 10 nM | pneumococcal adherence to resting LC in presence of antagonist ([4]; resting LC): 264 ±8 bacteria

CC(=O)N[C@H]1C(O)O[C@H](CO)[C@@H](O)[C@@H]1O (stereo partly drawn) [GlcNAc, N-acetyl-D-glucosamine]
decrease of pneumococcal adherence to transfected cells (PAF receptor [2]; transfected COS-7 and U937 cells (FIG. 3)): about 40% | adherence of bacteria lacking choline to activated EC in presence of sugar ([3]; ethanolamine-grown pneumococci, activated EC): 121 ±11 /100 EC | inhibition of adherence to activated cells by single sugars ([1]; cytokine-stimulated EC and LC, monosaccharides 1-50 mM (FIG. 4)): became effective in activated cells | adherence of bacteria lacking choline to activated LC in presence of sugar ([4]; ethanolamine-grown pneumococci, activated LC, 135 ±13 without sugar): 137 ±7 /100 LC

TNFα
increase of pneumococcal adherence to EC by cytokine stimulation ([3]; TNFα 10 ng/ml, 3 h (FIG. 1)): ~ 70%

B1: IL-1: interleukin-1, cytokine used to stimulate cells (protein, UniProt P01583 113-271, looked up)
Interleukin-1 alpha: SAPFSFLSNVKYNFMRIIKYEFILNDALNQSIIRANDQYLTAAALHNLDEAVKFDMGAYKSSKDDAKITVILRISKTQLYVTAQDEDQPVLLKEMPEIPKTITGSETNLLFFWETHGTKNYFTSVAHPNLFIATKQDYWVCLAGGPPSITDFQILENQA
pneumococcal adherence to EC after cytokine stimulation ([3]; IL-1 stimulation, resting 240 ±10): 363 ±13 bacteria/100 EC | pneumococcal adherence to LC after cytokine stimulation ([4]; IL-1 stimulation, resting 270 ±15): 355 ±18 bacteria/100 LC
